Data from ChEMBL document CHEMBL4229421 (Bioorg Med Chem Lett, 2018).

Columns and labels:
[1] = molecular target: Histone deacetylase 1 (Homo sapiens, UniProt Q13547); test: Inhibition of human HDAC1 using p53 (379 to 382 residues) derived fluorogenic peptide RHKKAc as substrate
[2] = molecular target: T1, Protein deacetylase HDAC6 (Homo sapiens, UniProt Q9UBN7); test: Inhibition of human HDAC6 using p53 (379 to 382 residues) derived fluorogenic peptide RHKKAc as substrate
T1 sequence (Q9UBN7 whole entry): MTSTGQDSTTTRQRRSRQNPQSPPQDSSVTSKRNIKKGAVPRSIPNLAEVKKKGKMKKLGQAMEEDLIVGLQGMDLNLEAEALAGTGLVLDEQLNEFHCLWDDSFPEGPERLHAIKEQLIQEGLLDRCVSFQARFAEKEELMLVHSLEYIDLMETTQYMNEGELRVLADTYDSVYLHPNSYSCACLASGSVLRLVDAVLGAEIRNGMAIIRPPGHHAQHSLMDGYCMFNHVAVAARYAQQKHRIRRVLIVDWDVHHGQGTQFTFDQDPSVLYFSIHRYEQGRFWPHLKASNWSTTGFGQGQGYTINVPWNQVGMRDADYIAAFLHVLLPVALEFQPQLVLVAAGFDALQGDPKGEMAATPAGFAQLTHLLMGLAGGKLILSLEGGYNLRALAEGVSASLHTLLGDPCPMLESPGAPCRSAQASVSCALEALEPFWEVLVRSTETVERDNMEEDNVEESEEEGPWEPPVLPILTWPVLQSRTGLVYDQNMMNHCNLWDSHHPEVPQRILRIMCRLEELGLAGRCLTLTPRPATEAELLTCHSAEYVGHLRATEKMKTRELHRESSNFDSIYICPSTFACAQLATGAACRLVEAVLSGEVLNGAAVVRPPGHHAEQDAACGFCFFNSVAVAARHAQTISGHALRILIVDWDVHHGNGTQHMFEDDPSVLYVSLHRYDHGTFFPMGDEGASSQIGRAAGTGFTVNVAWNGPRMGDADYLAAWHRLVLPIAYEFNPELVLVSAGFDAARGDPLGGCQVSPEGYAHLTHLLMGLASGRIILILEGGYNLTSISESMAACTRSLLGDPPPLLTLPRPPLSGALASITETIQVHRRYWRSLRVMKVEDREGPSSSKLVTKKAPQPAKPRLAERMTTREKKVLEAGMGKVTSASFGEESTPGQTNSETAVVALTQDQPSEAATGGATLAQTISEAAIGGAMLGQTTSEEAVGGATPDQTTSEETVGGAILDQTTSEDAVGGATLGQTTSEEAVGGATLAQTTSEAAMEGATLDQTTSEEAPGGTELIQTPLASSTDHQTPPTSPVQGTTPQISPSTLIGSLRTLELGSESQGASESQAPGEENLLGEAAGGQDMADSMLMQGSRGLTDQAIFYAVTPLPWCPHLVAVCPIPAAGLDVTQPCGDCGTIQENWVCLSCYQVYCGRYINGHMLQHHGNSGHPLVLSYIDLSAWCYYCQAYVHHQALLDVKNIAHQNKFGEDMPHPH

[3] = molecular target: Tyrosine-protein kinase JAK2 (Homo sapiens, UniProt O60674); test: Inhibition of human JAK2 using poly[Glu:Tyr] (4:1) as substrate in presence of [gamma-33P]ATP
[4] = system: MDA-MB-231; test: Antiproliferative activity against human MDA-MB-231 cells; format: functional, cell-based
[5] = system: HCT-116; test: Antiproliferative activity against human HCT116 cells; format: functional, cell-based
[6] = system: PC-3; test: Antiproliferative activity against human PC3 cells; format: functional, cell-based
[7] = system: MCF7; test: Antiproliferative activity against human MCF7 cells; format: functional, cell-based
[8] = species: Homo sapiens; test: Selectivity ratio of IC50 for human HDAC6 to IC50 for human HDAC1

Histone deacetylase 1, sequence (Q13547 whole entry, the tested form may be a part): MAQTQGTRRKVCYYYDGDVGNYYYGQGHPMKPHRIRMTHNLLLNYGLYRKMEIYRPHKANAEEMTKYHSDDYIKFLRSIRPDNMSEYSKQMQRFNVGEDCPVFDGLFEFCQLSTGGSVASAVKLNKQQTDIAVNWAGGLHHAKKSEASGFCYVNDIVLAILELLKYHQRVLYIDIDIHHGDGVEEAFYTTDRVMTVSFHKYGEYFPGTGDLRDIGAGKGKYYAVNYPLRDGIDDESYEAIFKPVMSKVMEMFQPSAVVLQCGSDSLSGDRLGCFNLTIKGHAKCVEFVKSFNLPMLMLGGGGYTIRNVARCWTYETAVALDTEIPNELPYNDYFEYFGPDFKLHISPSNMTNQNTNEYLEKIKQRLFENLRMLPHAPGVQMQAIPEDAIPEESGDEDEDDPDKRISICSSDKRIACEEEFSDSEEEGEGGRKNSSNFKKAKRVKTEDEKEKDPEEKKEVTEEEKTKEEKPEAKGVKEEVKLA
Tyrosine-protein kinase JAK2, sequence (O60674 whole entry): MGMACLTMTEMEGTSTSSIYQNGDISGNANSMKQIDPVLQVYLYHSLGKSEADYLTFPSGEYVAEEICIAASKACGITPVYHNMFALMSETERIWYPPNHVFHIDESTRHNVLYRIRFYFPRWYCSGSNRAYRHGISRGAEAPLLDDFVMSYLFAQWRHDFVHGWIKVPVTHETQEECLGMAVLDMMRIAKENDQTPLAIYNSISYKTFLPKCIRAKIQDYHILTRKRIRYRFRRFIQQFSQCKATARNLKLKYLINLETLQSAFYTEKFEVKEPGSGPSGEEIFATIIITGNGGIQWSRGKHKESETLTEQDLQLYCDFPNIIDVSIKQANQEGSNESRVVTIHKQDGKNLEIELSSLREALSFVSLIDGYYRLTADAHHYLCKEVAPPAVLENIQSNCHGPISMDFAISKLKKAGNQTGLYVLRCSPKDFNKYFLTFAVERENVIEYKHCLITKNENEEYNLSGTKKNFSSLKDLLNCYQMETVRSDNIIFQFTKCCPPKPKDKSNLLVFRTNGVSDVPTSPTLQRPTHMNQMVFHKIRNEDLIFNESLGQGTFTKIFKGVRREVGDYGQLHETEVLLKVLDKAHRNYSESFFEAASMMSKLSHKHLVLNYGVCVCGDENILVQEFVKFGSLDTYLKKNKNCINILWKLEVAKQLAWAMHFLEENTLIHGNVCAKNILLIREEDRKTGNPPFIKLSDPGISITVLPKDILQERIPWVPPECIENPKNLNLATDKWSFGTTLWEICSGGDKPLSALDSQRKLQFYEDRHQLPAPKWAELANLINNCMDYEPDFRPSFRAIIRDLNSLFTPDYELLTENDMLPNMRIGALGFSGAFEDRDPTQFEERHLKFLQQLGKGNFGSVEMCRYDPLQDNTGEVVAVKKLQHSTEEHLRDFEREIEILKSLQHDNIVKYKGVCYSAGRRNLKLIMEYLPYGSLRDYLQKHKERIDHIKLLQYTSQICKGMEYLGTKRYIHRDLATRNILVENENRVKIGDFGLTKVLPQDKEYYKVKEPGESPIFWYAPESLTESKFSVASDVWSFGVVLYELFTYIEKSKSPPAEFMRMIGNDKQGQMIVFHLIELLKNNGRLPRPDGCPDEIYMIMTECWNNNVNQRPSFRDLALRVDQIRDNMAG

An IC50 [1] of 101 nM, an IC50 [2] of 2.3 nM and an IC50 [3] of 7.7 nM were found for `CS(=O)(=O)CCn1cc(-c2nc(Nc3ccc(NC(=O)CCCCCCC(=O)NO)cc3)nc3[nH]ccc23)cn1` in this work. For the same compound, the IC50 [4] was over 100000 nM, the IC50 [5] was over 100000 nM and the IC50 [6] was over 100000 nM. It also gave an IC50 [7] of over 100000 nM.

An IC50 [1] of 63 nM, an IC50 [2] of 2.1 nM and an IC50 [3] of 2.3 nM were found for `COCCn1cc(-c2nc(Nc3ccc(NC(=O)CCCCCCC(=O)NO)cc3)nc3[nH]ccc23)cn1` in this work. For the same compound, the IC50 [4] was 13300 nM, the IC50 [5] was 9400 nM and the IC50 [6] was 35000 nM. The IC50 [7] was 12200 nM.

An IC50 [1] of 2000 nM, an IC50 [2] of 15.8 nM and an IC50 [3] of 19 nM were found for `O=C(CCCCCCC(=O)Nc1ccc(Nc2nc(-c3cnn(CCCCCCOc4ccccc4)c3)c3cc[nH]c3n2)cc1)NO` in this work.

An IC50 [1] of 45 nM and an IC50 [2] of 0.85 nM were found for `N#CCCn1cc(-c2nc(Nc3ccc(NC(=O)CCCCCCC(=O)NO)cc3)nc3[nH]ccc23)cn1` in this work.

An IC50 [1] of 2710 nM, an IC50 [2] of 9.6 nM and an IC50 [3] of 3 nM were found for `O=C(CCCCCCC(=O)Nc1ccc(Nc2nc(-c3cnn(CC4CCCC4)c3)c3cc[nH]c3n2)cc1)NO` in this work. For the same compound, the Ratio IC50 [8] was 300.

An IC50 [4] of over 10000 nM, an IC50 [5] of over 10000 nM and an IC50 [6] of over 10000 nM were found for `O=C(CCCCCCOc1ccc2cc1COC/C=C/COCc1cccc(c1)-c1ccnc(n1)N2)NO` in this work. The IC50 [7] was over 10000 nM.

An IC50 [1] of 2 nM, an IC50 [2] of 0.2 nM and an IC50 [3] of 0.96 nM were found for `O=C(CCCCCCC(=O)Nc1ccc(Nc2nc(-c3cn[nH]c3)c3cc[nH]c3n2)cc1)NO` in this work. For the same compound, the IC50 [4] was 11800 nM, the IC50 [5] was 14400 nM and the IC50 [6] was 20100 nM. It also gave an IC50 [7] of 15600 nM.

An IC50 [5] of over 10000 nM was found for `N#CC[C@H](C1CCCC1)n1cc(-c2ncnc3[nH]ccc23)cn1` [RUXOLITINIB] in this work.

An IC50 [1] of 1720 nM, an IC50 [2] of 7 nM and an IC50 [3] of 40 nM were found for `O=C(CCCCCCC(=O)Nc1ccc(Nc2nc(-c3cnn(CCCCOc4ccccc4)c3)c3cc[nH]c3n2)cc1)NO` in this work.

An IC50 [1] of 1320 nM, an IC50 [2] of 5.2 nM and an IC50 [3] of 21 nM were found for `O=C(CCCCCCC(=O)Nc1ccc(Nc2nc(-c3cnn(CCCCCOc4ccccc4)c3)c3cc[nH]c3n2)cc1)NO` in this work.

An IC50 [1] of 44 nM, an IC50 [2] of 1.6 nM and an IC50 [3] of 0.15 nM were found for `CCCn1cc(-c2nc(Nc3ccc(NC(=O)CCCCCCC(=O)NO)cc3)nc3[nH]ccc23)cn1` in this work. It also gave an IC50 [4] of 9100 nM, an IC50 [5] of 6500 nM and an IC50 [6] of 13400 nM. It also gave an IC50 [7] of 8200 nM.

An IC50 [1] of 83 nM, an IC50 [2] of 0.25 nM and an IC50 [3] of 0.041 nM were found for `C=CCCn1cc(-c2nc(Nc3ccc(NC(=O)CCCCCCC(=O)NO)cc3)nc3[nH]ccc23)cn1` in this work. For the same compound, the Ratio IC50 [8] was over 300, the IC50 [4] was 7400 nM and the IC50 [5] was 4100 nM. It also gave an IC50 [6] of 7700 nM and an IC50 [7] of 4500 nM.
